According to patent US6998415B2, “Substituted sulfonylphenylheterocycles as cyclooxygenase-2 and 5-lipoxygenase inhibitors” (Pharmacia Corporation, priority 1996, dated 2006):

What was measured:
COX-2 = molecular target: T1, COX-2 (UniProt P35354); assay: Assay for COX-2 activity in vitro (PGE2 ELISA, recombinant enzyme); format: biochemical, human or murine; settings: recombinant COX-2, arachidonic acid 10 μM, pre-incubation 10–20 minutes
T1 sequence (P35354 1-604): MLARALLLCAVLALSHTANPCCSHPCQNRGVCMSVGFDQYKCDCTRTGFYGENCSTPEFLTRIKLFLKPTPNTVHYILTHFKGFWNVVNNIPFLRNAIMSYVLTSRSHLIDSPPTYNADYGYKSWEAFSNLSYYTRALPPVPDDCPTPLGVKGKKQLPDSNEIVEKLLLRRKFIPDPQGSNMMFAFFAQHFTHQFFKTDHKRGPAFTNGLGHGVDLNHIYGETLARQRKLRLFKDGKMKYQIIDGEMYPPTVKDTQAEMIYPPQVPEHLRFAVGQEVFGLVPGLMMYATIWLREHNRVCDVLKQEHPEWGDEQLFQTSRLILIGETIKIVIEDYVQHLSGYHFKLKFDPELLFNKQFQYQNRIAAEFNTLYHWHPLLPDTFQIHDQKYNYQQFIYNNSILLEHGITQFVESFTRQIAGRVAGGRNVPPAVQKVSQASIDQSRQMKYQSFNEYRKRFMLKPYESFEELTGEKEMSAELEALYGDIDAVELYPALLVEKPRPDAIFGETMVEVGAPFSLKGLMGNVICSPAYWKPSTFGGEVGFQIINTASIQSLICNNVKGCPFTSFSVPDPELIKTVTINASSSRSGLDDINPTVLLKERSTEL
Experimental: Evaluation of COX-1 and COX-2 Activity in vitro
The COX-2 inhibit on activity of the compounds or this invention illustrated in the Examples was determined by the following methods. a. Preparation of Recombinant COX Baculoviruses
(§1) Recombinant COX-1 and COX-2 were prepared as described by Gierse et al, [J. Biochem., 305, 479–84 (1995)]. A 2.0 kb fragment containing the coding region of either human or murine COX-1 or human or murine COX-2 was cloned into a BamHI site of the baculovirus transfer vector pVL1393 (Invitrogen) to generate the baculovirus transfer vectors for COX-1 and COX-2 in a manner similar to the method of D. R. O'Reilly et al (Baculovirus Expression Vectors: A Laboratory Manual (1992)). Recombinant baculoviruses were isolated by transfecting 4 μg of baculovirus transfer vector DNA into SF9 insect cells (2×10^8) along with 200 ng of linearized baculovirus plasmid DNA by the calcium phosphate method. See M. D. Summers and G. E. Smith, A Manual of Methods for Baculovirus Vectors and Insect Cell Culture Procedures, Texas Agric. Exp. Station Bull. 1555 (1987). Recombinant viruses were purified by three rounds of plaque purification and high titer (10^7–10^8 pfu/ml) stocks of virus were prepared. For large scale production, SF9 insect cells were infected in 10 liter fermentors (0.5×10^6/ml) with the recombinant baculovirus stock such that the multiplicity of infection was 0.1. After 72 hours the cells were centrifuged and the cell pellet homogenized in Tris/Sucrose (50 mM: 25%, pH 8.0) containing 1% 3-[(3-cholamidopropyl)dimethylammonio]-1-propanesulfonate (CHAPS). The homogenate was centrifuged at 10,000×G for 30 minutes, and the resultant supernatant was stored at −80° C. before being assayed for COX activity. […]
(§2) b. Assay for COX-1 and COX-2 Activity
(§3) COX activity was assayed as PGE2 formed/μg protein/time using an ELISA to detect the prostaglandin released. CHAPS-solubilized insect cell membranes containing the appropriate COX enzyme were incubated in a potassium phosphate buffer (50 mM, pH 8.0) containing epinephrine, phenol, and heme with the addition of arachidonic acid (10 μM). Compounds were pre-incubated with the enzyme for 10–20 minutes prior to the addition of arachidonic acid. Any reaction between the arachidonic acid and the enzyme was stopped after ten minutes at 37° C./room temperature by transferring 40 μl of reaction mix into 160 μl ELISA buffer and 25 μM indomethacin. The PGE2 formed was measured by standard ELISA technology (Cayman Chemical).

COX-1 = COX-1 (UniProt P23219); assay: Assay for COX-1 activity in vitro (PGE2 ELISA, recombinant enzyme); format: biochemical, human or murine; settings: recombinant COX-1, arachidonic acid 10 μM, pre-incubation 10–20 minutes
Experimental: Evaluation of COX-1 and COX-2 Activity in vitro a. Preparation of Recombinant COX Baculoviruses
as §1, §2, §3

5-lipoxygenase (5-LO) = molecular target: T2, 5-lipoxygenase (5-LO) (Homo sapiens, UniProt P09917); assay: Assay for 5-lipoxygenase activity: calcium ionophore-induced LTB4 production in human whole blood; format: cell-based; settings: A-23187 (20 μg/ml)-induced LTB4 in human whole blood; mean IC50
T2 construct: calcium ionophore-induced Leukotriene B4 (LTB4) production in human whole blood; endogenous in cells; host or cells: human whole blood (healthy donors), diluted 1:4 in RPMI 1640
T2 sequence (P09917 1-674): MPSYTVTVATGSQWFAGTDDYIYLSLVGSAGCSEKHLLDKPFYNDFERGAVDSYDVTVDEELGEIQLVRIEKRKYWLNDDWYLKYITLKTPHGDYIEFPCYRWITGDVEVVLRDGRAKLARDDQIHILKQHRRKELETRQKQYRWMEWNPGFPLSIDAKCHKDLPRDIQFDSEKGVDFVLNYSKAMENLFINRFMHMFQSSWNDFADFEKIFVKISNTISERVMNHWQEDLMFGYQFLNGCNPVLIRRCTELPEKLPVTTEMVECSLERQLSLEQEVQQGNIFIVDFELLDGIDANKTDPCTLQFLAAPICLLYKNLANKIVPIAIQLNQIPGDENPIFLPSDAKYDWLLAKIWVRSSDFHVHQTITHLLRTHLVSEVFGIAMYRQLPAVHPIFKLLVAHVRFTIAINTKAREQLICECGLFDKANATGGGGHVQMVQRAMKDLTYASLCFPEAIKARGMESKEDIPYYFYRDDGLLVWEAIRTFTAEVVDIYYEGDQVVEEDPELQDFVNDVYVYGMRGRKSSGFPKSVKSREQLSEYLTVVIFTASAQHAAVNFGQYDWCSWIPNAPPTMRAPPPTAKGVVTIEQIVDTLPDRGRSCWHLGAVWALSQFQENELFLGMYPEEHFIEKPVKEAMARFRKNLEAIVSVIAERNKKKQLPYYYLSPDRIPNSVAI
Experimental: Assay for 5-Lipoxygenase Activity
The 5-lipoxygenase (5-LO) activity of the compounds were determined by the calcium ionophore-induced Leukotriene B4 (LTB4) production in human whole blood. Venous blood was collected from healthy human donors using heparin as an anti-coagulant. Human blood samples (0.2 ml of a 1:4 dilution in RPMI 1640 medium) were incubated in 96-well culture plates for 15 minutes at 37° C. with test compounds dissolved in ethanol (EtOH; final concentration<1%), or vehicle. Typically 7 concentrations of test compounds were examined in duplicate. A-23187 [Sigma] was added to the blood to a final concentration of 20 μg/ml, and the mixtures were incubated for 10 minutes at 37° C. The reaction was stopped by placing the samples on ice. The samples were then centrifuged at 800×g at 4° C. for 10 minutes to pellet the cells, and the supernatants were recovered for quantitation of LTB4 by LISA (Cayman Chemical Co.; sensitivity 3 pg/ml). IC50's were estimated from a four parameter logistic model with two parameters fixed, the minimum (0% inhibition) and maximum (100% inhibition). The IC50 value is the concentration that produces 50% inhibition between the fixed values of the minimum and maximum. Data is reported as the mean IC50 for each compound.

Row | SMILES | IC50 (COX-2) | IC50 (COX-1) | IC50 (5-lipoxygenase (5-LO)) | melting point
1 | COC1(c2cc(F)cc(OCc3cc(-c4ccc(Cl)cc4)n(-c4ccc(S(N)(=O)=O)cc4)n3)c2)CCOCC1 [Example 1, 4-[5-(4-Chlorophenyl)-3-[[3-fluoro-5-(3,4,5,6-tetrahydro-4-methoxy-2H-pyran-4-yl)phenoxy]methyl]-1H-pyrazol-1-yl]benzenesulfonamide] | < 100 nM | 38000 nM | 150 nM | 
2 | COC1(c2cccc(OCc3nc(-c4ccc(F)cc4)c(-c4ccc(S(C)(=O)=O)cc4)o3)c2)CCOCC1 [Example 2, 4-(4-Fluorophenyl)-5-(4-(methylsulfonyl)phenyl)-2-[[3-(3,4,5,6-tetrahydro-4-methoxy-2H-pyran-4-yl)phenoxy]methyl]oxazole] | 200 nM | > 10000 nM | 50 nM | 
3 | COC1(c2cc(F)cc(Oc3nc(-c4ccccc4)c(-c4ccc(S(N)(=O)=O)cc4)o3)c2)CCOCC1 [Example 4, 4-[2-[3-Fluoro-5-(4-methoxy-3,4,5,6-tetrahydro-2H-pyran-4-yl)phenoxy]-4-phenyl-5-oxazolyl]benzenesulfonamide] | < 100 nM | < 100 nM | 14000 nM | 159 to 161 °C
4 | COC1(c2cccc(Oc3nc(-c4ccccc4)c(-c4ccc(S(N)(=O)=O)cc4)o3)c2)CCOCC1 [Example 5, 4-[2-[3-(4-Methoxy-3,4,5,6-tetrahydro-2H-pyran-4-yl)phenoxy]-4-phenyl-5-oxazolyl]benzenesulfonamide] | < 100 nM | < 100 nM | 17000 nM | 145 to 147 °C
5 | COc1cccc(SCc2cc(-c3ccc(Cl)cc3)n(-c3ccc(S(N)(=O)=O)cc3)n2)c1 [Example 6, 4-[5-(4-Chlorophenyl)-3-(3-methoxyphenyl)thiomethyl-1H pyrazol-1-yl]benzenesulfonamide] | < 100 nM | 2200 nM | 440 nM | 
6 | COc1cccc(OCc2cc(-c3ccc(Cl)cc3)n(-c3ccc(S(N)(=O)=O)cc3)n2)c1 [Example 7, 4-[5-(4-Chlorophenyl)-3-(3-methoxyphenyl)oxymethyl-1H-pyrazol-1-yl]benzenesulfonamide] | < 100 nM | 3800 nM | 650 nM | 
7 | COC1(c2cc(F)cc(OCc3nc(-c4ccccc4)c(-c4ccc(S(N)(=O)=O)cc4)o3)c2)CCOCC1 [Example 8, 4-[2-[[3-Fluoro-5-(3,4,5,6-tetrahydro-4-methoxypyran-4-yl)phenoxy]methyl]-4-phenyloxazol-5-yl]benzenesulfonamide] | < 100 nM | 1300 nM | 300 nM | 70 to 80 °C
8 | COC(=O)C(Cc1cccc(C2(OC)CCOCC2)c1)c1nc(-c2ccccc2)c(-c2ccc(S(N)(=O)=O)cc2)o1 (stereo not drawn) [Example 9, Methyl 5-[4-(aminosulfonyl)phenyl]-α-[[3-(3,4,5,6-tetrahydro-4-methoxypyran-4-yl)phenyl]methyl]-4-phenyloxazole-2-acetate] | 10000 nM | 80000 nM | > 10000 nM | 88.7 to 94.9 °C
9 | COC1(c2cc(F)cc(OCC#Cc3ccc(Cc4nc(-c5ccccc5)c(-c5ccc(S(N)(=O)=O)cc5)o4)cc3)c2)CCOCC1 [Example 12, 4-[2-[[4-[3-[3-Fluoro-5-(3,4,5,6-tetrahydro-4-methoxypyran-4-yl)phenoxy]-1-propynyl]phenyl]methyl]-4-phenyloxazol-5-yl]benzenesulfonamide] | < 100 nM | > 100000 nM | > 10000 nM | 86 to 100 °C
10 | COC1(c2cc(F)cc(OCc3nc(-c4ccc(F)cc4)c(-c4ccc(S(N)(=O)=O)cc4)o3)c2)CCOCC1 [Example 14, 4-[2-[[3-Fluoro-5-(3,4,5,6-tetrahydro-4-methoxypyran-4-yl)phenoxy]methyl]-4-(4-fluorophenyl)oxazol-5-yl]benzenesulfonamide] | < 100 nM | 5000 nM | 200 nM | 70 to 72 °C
11 | COC1(c2cc(F)cc(OCc3onc(-c4ccccc4)c3-c3ccc(S(N)(=O)=O)cc3)c2)CCOCC1 [Example 16, 4-[5-[[3-Fluoro-5-(3,4,5,6-tetrahydro-4-methoxypyran-4-yl)phenoxy]methyl]-3-phenylisoxazol-4-yl]benzenesulfonamide] | < 100 nM | > 100000 nM | > 10000 nM | 
12 | COC1(c2cccc(COCc3nc(-c4ccccc4)c(-c4ccc(S(N)(=O)=O)cc4)o3)c2)CCOCC1 [Example 17, 4-[2-[[[3-(3,4,5,6-Tetrahydro-4-methoxypyran-4-yl)phenylmethyl]oxy]methyl]-4-phenyloxazol-5-yl]benzenesulfonamide] | 500 nM | > 100000 nM | 9800 nM | 62.1 to 71.2 °C
13 | COC1(c2cccc(CSCc3nc(-c4ccccc4)c(-c4ccc(S(N)(=O)=O)cc4)o3)c2)CCOCC1 [Example 18, 4-[2-[[[3-(3,4,5,6-Tetrahydro-4-methoxypyran-4-yl)phenylmethyl]thio]methyl]-4-phenyloxazol-5-yl]benzenesulfonamide] |  |  |  | 77.2 to 81.7 °C
14 | COC1(c2cc(F)cc(OCC(=O)NCCc3nc(-c4ccccc4)c(-c4ccc(S(N)(=O)=O)cc4)o3)c2)CCOCC1 [Example 22] | 1100 nM | > 100000 nM | > 10000 nM | 
